The nature of data set [1]: Stability of aggrelytes under physiological conditions (1H-NMR). In kind it is physicochemical. To be noted: 50 mM phosphate buffer, pH 7.4, 37° C.; for degraded during 3-day incubation: 3 days; for degraded during 7-day incubation: 7 days. How it is done: Aggrelyte-2 (N,S-diacetyl-L-cysteine methyl ester; Astatech Catalog #D95910) and Aggrelyte-2C (N-acetyl cysteine methyl ester; Sigma Aldrich Catalog #01042) (2 mg each) were incubated in 1 mL of 50 mM phosphate buffer, pH 7.4, at 37° C. Aliquots were withdrawn immediately after incubation (Day 0) and after 1, 3, and 7 days. Stability of the aggrelytes was tested using ^1H-NMR (in DMSO-d6) spectroscopy. The NMR peak integration values for the S-acetyl or N-acetyl cysteine methyl proton were compared with the cysteine methine proton.

For data set [2], the system named is water-insoluble (WI) proteins from human lenses. The data set is described as follows: Solubilization of water-insoluble (WI) proteins from human lenses (BCA protein assay of supernatant). Conditions: 500 μM; for protein in the supernatant / solubilized protein, % of the initial WI protein / solubilized protein, % of the initial protein: ten human lenses (65 to 75 years). In kind it is biochemical. How it is done:
Human lenses (donor age: 55-75 years) were obtained from Saving Sight, Kansas City, MO, and Lions Eye Institute for Transplant & Research, Tampa, FL. The lenses were harvested within 36 hours postmortem, stored with (when used for culturing) or without minimum essential medium (MEM), and shipped to the inventors' laboratory on ice or frozen on dry ice. Lenses shipped on dry ice (used in the presently described and other solubility studies) were stored at −80° C. until use. Each frozen lens was thawed on ice and homogenized with 1.5 mL of PBS in a hand-held glass homogenizer. The homogenate was centrifuged at 20,000×g for 20 min at 4° C. The supernatant was discarded, and the pellet was suspended in 1 mL of homogenization buffer and centrifuged at 20,000×g for 20 min at 4° C. The resulting pellet was lyophilized and designated the water-insoluble (WI) fraction.
In the present example, the ability of aggrelytes to solubilize WI proteins from a human lens was investigated. Stock solutions (10 mM) of Aggrelyte-2 and Aggrelyte-2C were prepared in 50 mM phosphate buffer. The WI fraction (2 mg) was incubated in 50 mM sodium phosphate buffer (0.4 mL), pH 7.4, at 37° C. with aggrelyte at a final concentration of 0-2000 μM. The mixture was incubated at 37° C. with shaking for 24 or 48 hours after adding 0.002% sodium azide to prevent bacterial growth. After incubation, the samples were centrifuged at 20,000×g for 20 min at 4° C., and the supernatants were collected. Protein in the supernatant was measured using a BCA Protein Assay Kit from Thermo Scientific (Waltham, MA) using BSA as the standard.
WI fractions from ten aged human lenses (65 to 75 years) were prepared as in Example 3. The WI fractions (2 mg) were incubated in 50 mM sodium phosphate buffer (0.4 mL), pH 7.4, at 37° C. with 500 μM aggrelyte for 24 or 48 hours. Each sample was separately processed three times and analyzed (mean±S.D.).

Data set [3] concerns AcK in solubilized WI protein of human lenses. The data set is described as follows: AcK in solubilized human lens proteins (LC-MS/MS). In kind it is biochemical. To be noted: 500 μM, 24 hours; for AcK level: solubilized WI protein, human lenses (55-67 years). How it is done: Water-insoluble proteins were prepared from aged human lenses (55-67 years) as described in Example 3, and incubated with 0 or 500 μM Aggrelyte-2 or Aggrelyte-2C for 24 hours as described in Example 3. Solubilized WI protein fractions (0.5 mg/mL) and water soluble (WS) protein fractions (3 mg/mL from human lenses) were sequentially digested with enzymes as previously described (Nandi et al., 2019, Biochemistry, 58(9):1260-1274). The enzyme-digested samples were analyzed for AcK by LC-MS/MS using the standard addition method as previously described (id.) The AcK levels were calculated based on the protein input in the enzymatic digestions.

A further data set has as its system γ-crystallin (γC). The data set is described as follows: Crystallin levels in solubilized human lens proteins (Western blot), γC. To be noted: 500 μM, solubilized proteins of three human lenses. In kind it is biochemical. How it is done:
The contents of crystalline proteins [αA-crystallin (αAC), αB-crystallin (αBC), β-crystallin (βC), and γ-crystallin (γC)] in the solubilized proteins of three human lenses treated with either Aggrelyte-2 or Aggrelyte-2C (500 μM) from Example 4 were determined by Western blot analysis as described for Example 5. Membranes were incubated with antibodies against αAC (1:14,000 dilution; Enzo Life Sciences, Catalog #ADI-SPA-221D), αBC (1:700,000 dilution; University of Iowa), βC (1:14,000 dilution; Santa Cruz Biotechnology, Catalog #sc-22745), and γC (1:7,000 dilution; Santa Cruz Biotechnology, Catalog #sc-22746). The secondary antibodies were HRP-conjugated anti-mouse IgG for αBC and HRP-conjugated […] (Cell Signaling Technology, Catalog #7074S) for αAC, βC, and γC. According to the supplier, the […] detects mostly βB1-crystallin and, to a lesser extent, βA1/3, βA2, βA4, βB2, and βB3-crystallin. The γC antibody reacts with γA, γB, γC, γD, γE, and γF-crystallin.
For orientation: In western blotting, separated proteins are transferred to a membrane and probed.

In data set [4] the test system is human lenses. The data set is described as follows: Stiffness and axial strain of ex vivo human lenses (Example 10). To be noted: 1 mM, 72 h; for lens stiffness (displacement) vs untreated controls: human lenses (42-68 years), loads of 500 mg and 1000 mg; for axial strain vs controls: human lenses, 500 mg and 1000 mg loads. How it is done: In this example, the lenses were dissected from the eyes of mice (C57BL/6J, 5-8 months old, Jackson Laboratories, Stock No. 000664, n=4-5) by a posterior approach and incubated without (“Control”) or with Aggrelyte-2 or Aggrelyte-2C (1 mM) for 24 hours in serum-free and phenol-red-free MEM (297 mOsm) at 37° C. Lens stiffness was measured as previously described in Baradia, H. et al., (2010) Exp. Eye Res. 91, 300-307. Briefly, the lens was placed on a flat platform with the anterior side facing up, and a load was applied to the top of the lens at 100 mg increments for mouse lenses and at 250 mg increments for human lenses. The displacement in the lens axial diameter (in μm or mm) was measured using MATLAB software developed by Dr. Adrian Glasser, UK, and plotted against the load applied. The displacement at a specific load was used to determine differences in lens stiffness between the untreated control and aggrelyte-treated lenses.
Freshly obtained human lenses (42-68 years old, n=10-12) were incubated with or without Aggrelyte-2 or Aggrelyte-2C (1 mM) for a total of 72 h in phenol red-free MEM with a change in media containing freshly dissolved aggrelytes every 24 h. One lens from each donor pair was used as the control, and the other was treated with aggrelyte. After incubation, the lens stiffness was measured as described above. Axial strain was also calculated based on the following formula: […]

Data set [5] relates to human lenses. Description: AcK-bearing proteins in WS cortical and nuclear fractions of treated human lenses (Western blot). Conditions: 1 mM, 72 h, vs untreated controls. How it is done: For Western blotting, 10-20 μg of protein from each lens sample was used and each sample was separately processed three times and analyzed.

2 molecules from patent US12350250B2, “Aggrelytes for treating ocular conditions” (The Regents of the University of Colorado, a Body Corporate, priority 2022, dated 2025) can be followed below.

As for `COC(=O)[C@H](CS)NC(C)=O` [Aggrelyte-2C, N-acetyl-L-cysteine methyl ester], in data set [1], the “degraded during 3-day incubation” value came out at 21% and the “degraded during 7-day incubation” value was found to be 37%. In data set [2] (24-hour incubation), the “protein in the supernatant” value is 0.72 to 0.97 µg/µL and the “solubilized protein, % of the initial WI protein” value is on record as 14-19%. In data set [2] (48-hour incubation), the “protein in the supernatant” value lay within 0.68 to 1.12 µg/µL and the “solubilized protein, % of the initial protein” value is 14-22%. In addition, in data set [2] (48 hours, human lens), the “protein solubility, fold less than that of Aggrelyte-2” value is listed as ~1.4 fold. In addition, in data set [3], the AcK level is listed as 0.6-0.9 nmol/mg protein. Also, the “levels of γC vs Controls” value with γ-crystallin (γC) was “no effect”. For the same molecule, in the data set on human lenses [4], the “lens stiffness (displacement) vs untreated controls” value is “did not demonstrate significant effects on displacement” and the “axial strain vs controls” value is reported as “did not have a significant effect”. For the same molecule, in the data set with human lenses [5], the “AcK levels, cortical protein fraction (Western blot)” value is “not statistically different” and the “AcK levels, nuclear protein fraction (Western blot)” value was “not statistically different”.

Regarding `COC(=O)[C@H](CSC(C)=O)NC(C)=O` [Aggrelyte-2, N,S-diacetyl-L-cysteine methyl ester], in data set [1], the “degraded during 3-day incubation” value is recorded as 30% and the “degraded during 7-day incubation” value was 42%. Further, in data set [2] (24-hour incubation), the “protein in the supernatant” value was 0.97 to 1.30 µg/µL and the “solubilized protein, % of the initial WI protein” value is 20-26%. The “solubilizing WI proteins, fold better than Control or Aggrelyte-2C” value in data set [2] (24 and 48 hours, combined ten lenses) is ~1.4 fold. In addition, in data set [2] (48-hour incubation), the “protein in the supernatant” value is 0.96 to 1.48 µg/µL and the “solubilized protein, % of the initial protein” value was 19-30%. Besides, in data set [3] (combined mean values), the “AcK levels, fold increase compared to Aggrelyte-2C-treated samples” value is 2.4 fold and the “AcK levels, fold increase compared to untreated controls” value is listed as 1.9 fold. Moreover, the AcK level in data set [3] was 1.5-2.1 nmol/mg protein. In the data set on γ-crystallin (γC), the “levels of γC vs Controls” value is on record as “slightly but not significantly higher”. Moreover, in the data set on human lenses [4], the “lens stiffness (displacement) vs untreated controls” value was “significantly (p<0.01) reduced lens stiffness” and the “axial strain vs controls” value was “significantly (p<0.01) reduced the axial strain”. For the same molecule, in the data set on human lenses [5], the “AcK levels, cortical protein fraction (Western blot)” value is reported as “significantly increases” and the “AcK levels, nuclear protein fraction (Western blot)” value is “significantly increases”.
